Measurements taken from patent publication US6296785A, “Indeno-fused photochromic naphthopyrans” (PPG Industries Ohio, Inc., priority 2000, dated 2001).

Legend:
Type in all cases: physicochemical
[1] = Relative ΔOD at Saturation Test; settings: ΔOD at saturation (Band A)/ΔOD at saturation (Band B)×100
Description: In accordance with the present invention, it has now been discovered that certain novel indeno[2,1-f]naphtho[1,2-b]pyrans having two absorption bands in the activated (colored) state, an acceptable fade rate, high activated intensity, a high coloration rate and a rating of 80 or higher in the Relative ΔOD at Saturation Test may be prepared. The Relative ΔOD at Saturation Test is described in Example 21. The ratings of the test are defined herein as the result obtained when the optical density of band "A" is divided by the optical density of band "B" and multiplied by 100. It is believed that compounds having a rating of 80 or higher are most valuable for formulating neutral grays, greens and browns for commercial photochromic ophthalmic eyeware.
(§1) Testing was done with the photochromic compounds described in Examples 1 through 20 and Comparative Examples 1 through 3 in the following manner. A quantity of photochromic compound calculated to yield a 1.5×10^-3 molal solution was added to a flask containing 50 grams of a monomer blend of 4 parts ethoxylated bisphenol A dimethacrylate (BPA 2EO DMA), 1 part poly(ethylene glycol) 600 dimethacrylate, and 0.033 weight percent 2,2'-azobis(2-methyl propionitrile) (AIBN). The photochromic compound was dissolved into the monomer blend by stirring and gentle heating, if necessary. After a clear solution was obtained, it was poured into a flat sheet mold having the interior dimensions of 2.2 mm×6 inches (15.24 cm)×6 inches (15.24 cm). The mold was sealed and placed in a horizontal air flow, programmable oven programmed to increase the temperature from 40° C. to 95° C. over a 5 hour interval, hold the temperature at 95° C. for 3 hours, lower it to 60° C. over a 2 hour interval and then hold it at 60° C. for 16 hours. After the mold was opened, the polymer sheet was cut using a diamond blade saw into 2 inch (5.1 centimeters) test squares.
(§2) The photochromic test squares of Part A were tested for photochromic response rates on an optical bench. Prior to testing on the optical bench, the photochromic test squares were exposed to 365 nanometer ultraviolet light for about 15 minutes to activate the photochromic compounds and then placed into a 76° C. oven for about 15 minutes to bleach the photochromic compounds. The test squares were then cooled to room temperature, exposed to fluorescent room lighting for at least 2 hours and then kept covered for at least 2 hours prior to testing on an optical bench maintained at 72° F. (22.2° C.). The bench was fitted with a 250 watt Xenon arc lamp, a remote controlled shutter, a copper sulfate bath acting as a heat sink for the arc lamp, a Schott WG-320 nm cut-off filter which removes short wavelength radiation; neutral density filter(s) and a sample holder in which the square to be tested was inserted. The power output of the optical bench, i.e., the dosage of light that the sample lens would be exposed to, was calibrated with a photochromic test square used as a reference standard. […] The UV-A detector was placed into the sample holder and the light output was measured. Adjustments to the power output were made by increasing or decreasing the lamp wattage or by adding or removing neutral density filters in the light path.
Change in optical density (ΔOD) was determined by inserting a test square in the bleached state into the sample holder, adjusting the transmittance scale to 100%, opening the shutter from the Xenon lamp to provide ultraviolet radiation to change the test square from the bleached state to an activated (i.e., darkened) state, measuring the transmittance in the activated state, and calculating the change in optical density according to the formula: ΔOD=log(100/% Ta), where % Ta is the percent transmittance in the activated state and the logarithm is to the base 10. […]

[2] = photochromic response of test squares on an optical bench (sensitivity, saturation optical density, bleach rate); settings: for ΔOD @ Saturation (Band A) / ΔOD @ Saturation (Band B): UV exposure 15 minutes; for ΔOD @ Saturation (Band A) / Sensitivity ΔOD/MIN (Band A) / ΔOD @ Saturation (Band B) / Sensitivity ΔOD/MIN (Band B): 72° F. (22.2° C.), polymer test square; for Sensitivity ΔOD/MIN (Band A) / Sensitivity ΔOD/MIN (Band B): first five (5) seconds of UV exposure, expressed per minute; for Bleach Rate T 1/2: measured at band B, room temperature (72° F., 22.2° C.) after removal of activating light
Experimental: as §1, §2
A monitoring, collimated beam of light from a tungsten lamp was passed through the square at a small angle (approximately 30°) normal to the square. After passing through the square, the light from the tungsten lamp was directed to a detector through Spectral Energy Corp. GM-200 monochromator set at the previously determined visible lambda max of the photochromic compound being measured. The output signals from the detector were processed by a radiometer.
Change in optical density (ΔOD) was determined by inserting a test square in the bleached state into the sample holder, adjusting the transmittance scale to 100%, opening the shutter from the Xenon lamp to provide ultraviolet radiation to change the test square from the bleached state to an activated (i.e., darkened) state, measuring the transmittance in the activated state, and calculating the change in optical density according to the formula: ΔOD=log(100/% Ta), where % Ta is the percent transmittance in the activated state and the logarithm is to the base 10.
The ΔOD/Min, which represents the sensitivity of the photochromic compound's response to UV light, was measured over the first five (5) seconds of UV exposure, then expressed on a per minute basis. The saturation optical density (ΔOD@ Saturation) was taken under identical conditions as the ΔOD/Min, except UV exposure was continued for 15 minutes. […]

[3] = lambda max (Vis) of activated photochromic test squares in a Varian Cary 3 uv-visible spectrophotometer; settings: activated form in test square
Experimental: as §1
The lambda max (Vis) is the wavelength in the visible spectrum at which the maximum absorption of the activated (colored) form of the photochromic compound in a test square occurs. The lambda max (Vis) wavelengths reported in Table 1 were determined by testing the photochromic test square polymerizates of Part A in a Varian Cary 3 uv-visible spectrophotometer. The bleach rate (T 1/2) is the time interval in seconds for the absorbance of the activated form of the photochromic compound in the test squares to read one half the highest absorbance at room temperature (72° F., 22.2° C.) after removal of the source of activating light.
For each lambda max visible, the corresponding optical density (Δ OD/Min and Δ OD at saturation) for the desired compounds of the Examples and Comparative Examples are tabulated in Table 1 for the two bands (A and B) of peak absorption for each compound. Table 1 also includes the bleach rate (T 1/2) for each of the compounds as measured at band B. The ratings of the Relative Δ OD at Saturation Test for the bands A and B of each of the Examples and Comparative Examples are calculated as follows: Δ OD at saturation (Band A)/Δ OD at saturation (Band B)×100.

Row | SMILES | Relative ΔOD at Saturation (rating) [1] | ΔOD @ Saturation (Band A) [2] | Sensitivity ΔOD/MIN (Band A) [2] | ΔOD @ Saturation (Band B) [2] | Sensitivity ΔOD/MIN (Band B) [2] | Bleach Rate T 1/2 [2] | λ MAX Vis (Band A) [3] | λ MAX Vis (Band B) [3]
1 | COc1ccc(C2(c3ccc(N4CCOCC4)cc3)C=Cc3c4c(c5cc(OC)c(OC)cc5c3O2)-c2ccccc2C4c2ccccc2)cc1 (stereo not shown) [Example 8, 3-(4-methoxyphenyl)-3-(4-morpholinophenyl)-6,7-dimethoxy-13-phenyl-3H, 13H-indeno[2,1-f]naphtho[1,2-b]pyran] | 98 | 0.43 | 0.14 ΔOD/MIN | 0.44 | 0.18 ΔOD/MIN | 2.98 min | 484 nm | 603 nm
2 | COc1cc2c(cc1OC)C(C)(C)c1c3c(c4cc(OC)c(OC)cc4c1-2)OC(c1ccccc1)(c1ccc(N2CCOCC2)cc1)C=C3 (stereo not shown) [Example 2, 3-phenyl-3-(4-morpholinophenyl)-6,7,10,11-tetramethoxy-13,13-dimethyl-3H,13H-indeno[2,1-f]naphtho[1,2-b]pyran] | 103 | 1.10 | 0.32 ΔOD/MIN | 1.07 | 0.29 ΔOD/MIN | 14.2 min | 485 nm | 618 nm
3 | COc1ccc(C2(c3ccc(OC)cc3)C=Cc3c4c(c5cc(OC)c(OC)cc5c3O2)-c2ccccc2C4c2ccccc2)cc1 (stereo not shown) [Example 7, 3,3-di(4-methoxyphenyl)-6,7-dimethoxy-13-phenyl-3H,13H-indeno[2,1-f]naphtho[1,2-b]pyran] | 153 | 0.66 | 0.17 ΔOD/MIN | 0.43 | 0.16 ΔOD/MIN | 3.43 min | 460 nm | 577 nm
4 | CCC1(OC)c2ccccc2-c2c1c1c(c3cc(OC)c(OC)cc23)OC(c2ccc(OC)cc2)(c2ccc(N3CCOCC3)cc2)C=C1 (stereo not shown) [Example 18, 3-(4-methoxyphenyl)-3-(4-morpholinophenyl)-6,7-dimethoxy-13-ethyl-13-methoxy-3H,13H-indeno[2,1-f]naphtho[1,2-b]pyran] | 100 | 0.27 | 0.21 ΔOD/MIN | 0.27 | 0.18 ΔOD/MIN | 1.43 min | 483 nm | 604 nm
5 | CCC1(O)c2ccccc2-c2c1c1c(c3cc(OC)c(OC)cc23)OC(c2ccc(OC)cc2)(c2ccc(OC)cc2)C=C1 (stereo not shown) [Example 5, 3,3-di(4-methoxyphenyl)-6,7-dimethoxy-13-hydroxy-13-ethyl-3H-13H-indeno[2,1-f]naphtho[1,2-b]pyran] | 155 | 0.42 | 0.26 ΔOD/MIN | 0.27 | 0.19 ΔOD/MIN | 1.45 min | 458 nm | 584 nm
